Experiments:
full-length WT STING = target: T1, full-length WT STING (Homo sapiens, UniProt Q86WV6, H232R); assay: 3H-cGAMP filtration binding assay (WT STING); conditions: for EC50: competition with tritiated cGAMP, WT STING membrane; for inhibition at 2 µM: at 2,000 nM compound
T1 construct: AviTag (after gg linker) (C); HRV3C cleavage site (after gs linker) (C); HIS8 (C); made in house; host or cells: Trichoplusia ni (Hi-Five) insect cells infected with baculovirus (virus generated and amplified in Sf21 cells); used as a washed membrane preparation
T1 sequence (Q86WV6 with tags, fused parts or gaps H232R): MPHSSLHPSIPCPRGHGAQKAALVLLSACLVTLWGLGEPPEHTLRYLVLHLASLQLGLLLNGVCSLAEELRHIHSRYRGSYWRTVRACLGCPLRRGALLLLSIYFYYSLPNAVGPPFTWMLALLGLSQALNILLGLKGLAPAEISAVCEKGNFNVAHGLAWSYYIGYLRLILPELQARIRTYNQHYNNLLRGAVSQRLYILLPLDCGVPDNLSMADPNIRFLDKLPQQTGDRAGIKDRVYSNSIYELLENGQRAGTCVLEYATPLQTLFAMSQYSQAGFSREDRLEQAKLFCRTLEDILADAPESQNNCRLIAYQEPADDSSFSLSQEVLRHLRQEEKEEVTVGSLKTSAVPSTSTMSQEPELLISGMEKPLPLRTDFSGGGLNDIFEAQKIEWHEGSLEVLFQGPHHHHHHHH
Method in brief: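 EC50 values come from 4-parameter fits of remaining filter-bound tritium versus log concentration (10-point, 1:3 dilution). Insect-cell membranes carrying full-length WT STING were incubated 60 min at RT with compound and tritiated cGAMP (16 nM working stock) before filtration.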

[1] = system: secretion of interferon-beta from THP1 cells; assay: IFN-β secretion in THP1 cell culture (5 h); assay type: cell-based; conditions: Homo sapiens, THP-1, 5 h, 30 uM cGAMP = 100%; for activation at 30 µM: compound at 30 μM, read-out: % Effect at 30 μM relative to 2′3′-cGAMP; for activation at 3 µM: compound at 3 uM, read-out: % Effect relative to 2′3′-cGAMP (@ 3 uM)
Method in brief: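 IFN-β in supernatant measured by AlphaLISA after a 5 h, 37 °C incubation of THP1 cells with compound (10 concentrations, 30000 down to 1.5 nM, 0.3% DMSO) in low-serum RPMI. Values scaled between DMSO and 30 uM cGAMP controls; 4-parameter curve fit yields EC50.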

full-length HAQ STING = target: T2, full-length HAQ STING (Homo sapiens, UniProt Q86WV6, G230A/H232R/R293Q/R71H); assay: 3H-cGAMP filtration binding assay (HAQ STING); conditions: competition with tritiated cGAMP, HAQ STING membrane
T2 construct: AviTag (after GG linker) (C); HRV3C cleavage site (after GS linker) (C); HIS8 (C); made in house; host or cells: Trichoplusia ni (Hi-Five) insect cells infected with baculovirus (virus generated and amplified in Sf21 cells); used as a washed membrane preparation
T2 sequence (Q86WV6 with tags, fused parts or gaps R71H/G230A/H232R/R293Q): as the sequence (Q86WV6 with tags, fused parts or gaps H232R) above, with R71H, G230A, R293Q counted along it
Method in brief: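 Hi-Five (T. ni) membranes overexpressing the STING variant (2.2 ug/ml working) preincubated with compound 60 min at RT in PBS, then [3H]cGAMP (8 nM working stock) added for 60 min at RT. Bound radioactivity captured on GF/B filters and counted by scintillation; EC50 from 4-parameter fit of control-normalized activity.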

SMILES	EC50 (full-length WT STING)	EC50 (full-length HAQ STING)	inhibition at 2 µM (full-length WT STING)	inhibition at 20 µM (full-length WT STING; at 20,000 nM compound)	activation at 30 µM [1]	activation at 3 µM [1]
COc1cc2sc(C(=O)CCC(=O)O)cc2c(F)c1OCCCOc1cc2sc(C(=O)C[C@H](C)C(=O)O)cc2nc1OC [Example 168, (S)-4-(6-(3-((2-(3-carboxypropanoyl)-4-fluoro-6-methoxybenzo[b]thiophen-5-yl)oxy)propoxy)-5-methoxythieno[3,2-b]pyridin-2-yl)-2-methyl-4-oxobutanoic acid]	199 nM	13 nM	–	–	102%	–
COc1cc2sc(C(=O)CCC(=O)O)cc2cc1CCCOc1nc2cc(C(=O)CCC(=O)O)sc2cc1OC [Example 10, 4-(5-(3-(2-(3-carboxypropanoyl)-6-methoxybenzo [b]thiophen-5-yl)propoxy)-6-methoxythieno[3,2-b]pyridin-2-yl)-4-oxobutanoic acid]	421 nM	123 nM	–	–	134%	–
COc1cc2sc(C(=O)C[C@H](C)C(=O)O)cc2c(F)c1OCCCOc1c(OC)c(Cl)c2sc(C(=O)C[C@H](C)C(=O)O)cc2c1Cl [Example 137, (S)-4-(5-(3-((2-((S)-3-carboxybutanoyl)-4,7-dichloro-6-methoxybenzo[b]thiophen-5-yl)oxy)propoxy)-4-fluoro-6-methoxybenzo[b]thiophen-2-yl)-2-methyl-4-oxobutanoic acid]	319 nM	40 nM	–	–	155%	–
COc1cc2cc(C(=O)C[C@H](C)C(=O)O)sc2cc1OCCCOc1c(OC)cc2sc(C(=O)C[C@H](C)C(=O)O)cc2c1F [Example 70, (S)-4-(6-(3-((2-((S)-3-carboxybutanoyl)-4-fluoro-6-methoxybenzo[b]thiophen-5-yl)oxy)propoxy)-5-methoxybenzo[b]thiophen-2-yl)-2-methyl-4-oxobutanoic acid]	1 nM	1 nM	–	–	47%	–
COc1cc2sc(C(=O)C[C@H](C)C(=O)O)cc2cc1OCCCCCCOc1c(OC)cc2sc(C(=O)C[C@H](C)C(=O)O)cc2c1F [Example 111, (S)-4-(5-((6-((2-((S)-3-carboxybutanoyl)-4-fluoro-6-methoxybenzo[b]thiophen-5-yl)oxy)hexyl)oxy)-6-methoxybenzo[b]thiophen-2-yl)-2-methyl-4-oxobutanoic acid]	–	861 nM	–	50%	–	45%
COc1cc2sc(C(=O)C[C@H](C)C(=O)O)cc2c(F)c1OCCCOc1cc2sc(C(=O)[C@@H]3CC[C@H]3C(=O)O)cc2c(F)c1OC (single isomer, unassigned) [Example 96]	628 nM	18 nM	–	–	43%	–
COc1cc2sc(C(=O)C[C@H](C)C(=O)O)cc2cc1OCCCOc1c(OC)cc2sc(C(=O)C[C@H](C)C(=O)NS(=O)(=O)N(C)C)cc2c1F [Example 178, (S)-4-(5-(3-((2-((S)-4-((N,N-Dimethylsulfamoyl)amino)-3-methyl-4-oxobutanoyl)-4-fluoro-6-methoxybenzo[b]thiophen-5-yl)oxy)propoxy)-6-methoxybenzo[b]thiophen-2-yl)-2-methyl-4-oxobutanoic acid]	31 nM	4 nM	–	–	107%	–
COc1cc2sc(C(=O)C[C@H](C)C(=O)O)cc2cc1OCC(C)COc1cc2cc(C(=O)C[C@H](C)C(=O)O)sc2cc1OC [Example 160, (2S,2′S)-4,4′-(((2-methylpropane-1,3-diyl)bis(oxy))bis(6-methoxybenzo[b]thiophene-5,2-diyl))bis(2-methyl-4-oxobutanoic acid)]	6 nM	1 nM	–	–	18%	–
COc1cc2sc(CC[C@H](C)C(=O)O)cc2cc1OCCCOc1c(OC)cc2sc(C(=O)C[C@H](C)C(=O)O)cc2c1Cl [Example 145, (S)-4-(5-(3-((2-((S)-3-carboxybutyl)-6-methoxybenzo[b]thiophen-5-yl)oxy)propoxy)-4-chloro-6-methoxybenzo[b]thiophen-2-yl)-2-methyl-4-oxobutanoic acid]	–	143 nM	47%	–	–	59%

Continued by falling EC50 (full-length HAQ STING), values first:

EC50 (full-length WT STING)	EC50 (full-length HAQ STING)	inhibition at 2 µM (full-length WT STING)	inhibition at 20 µM (full-length WT STING; at 20,000 nM compound)	SMILES	activation at 30 µM [1]	activation at 3 µM [1]
–	694 nM	30%	–	COc1cc2sc(CC[C@H](C)C(=O)O)cc2c(Cl)c1OCCOc1c(OC)cc2sc(C(=O)C[C@H](C)C(=O)O)cc2c1Cl [Example 154, (S)-4-(5-(2-((2-((S)-3-carboxybutyl)-4-chloro-6-methoxybenzo[b]thiophen-5-yl)oxy)ethoxy)-4-chloro-6-methoxybenzo[b]thiophen-2-yl)-2-methyl-4-oxobutanoic acid]	–	76%
233 nM	22 nM	–	–	COc1cc2sc(C(=O)C[C@H](C)C(=O)O)cc2c(Br)c1OCCCOc1c(OC)cc2sc(C(=O)C[C@H](C)C(=O)O)cc2c1Br [Example 134, (2S,2′S)-4,4′-(5,5′-(propane-1,3-diylbis(oxy))bis(4-bromo-6-methoxybenzo[b]thiophene-5,2-diyl))bis(2-methyl-4-oxobutanoic acid)]	89%	–
93 nM	15 nM	–	–	COc1cc2sc(C(=O)C[C@H](C)C(=O)O)cc2c(F)c1OCC1(COc2c(OC)cc3sc(C(=O)C[C@H](C)C(=O)O)cc3c2F)CC1 [Example 144, (2S,2′S)-4,4′-(((cyclopropane-1,1-diylbis-(methylene))bis (oxy))bis(4-fluoro-6-methoxybenzo[b]thiophene-5,2-diyl))bis(2-methyl-4-oxobutanoic acid)]	8%	–
76 nM	12 nM	–	–	COc1cc2sc(C(=O)CCC(=O)O)cc2nc1CCOc1nc2cc(C(=O)CCC(=O)O)sc2cc1OC [Example 8, 4-(5-(2-(2-(3-carboxypropanoyl)-6-methoxythieno[3,2-b]pyridin-5-yl)ethoxy)-6-methoxythieno[3,2-b]pyridin-2-yl)-4-oxobutanoic acid]	99%	–
3 nM	3 nM	–	–	COc1cc2sc(C(=O)C[C@H](C)C(=O)O)cc2nc1OCCCc1c(OC)cc2sc(C(=O)C[C@H](C)C(=O)O)cc2c1F [Example 159, (S)-4-(5-(3-(2-((S)-3-carboxybutanoyl)-4-fluoro-6-methoxybenzo[b]thiophen-5-yl)propoxy)-6-methoxythieno[3,2-b]pyridin-2-yl)-2-methyl-4-oxobutanoic acid]	99%	–
4 nM	2 nM	–	–	COc1cc2sc(C(=O)C[C@H](C)C(=O)O)cc2cc1OCCCOc1cc2cc(C(=O)C[C@H](C)C(=O)O)sc2cc1OC [Example 52, (2S,2′S)-4,4′-((propane-1,3-diylbis(oxy))bis(6-methoxybenzo[b]thiophene-5,2-diyl))bis(2-methyl-4-oxobutanoic acid)]	53%	–
3 nM	1 nM	–	–	COc1cc2sc(C(=O)C[C@H](C)C(=O)O)cc2cc1OCCCOc1c(O)cc2sc(C(=O)C[C@H](C)C(=O)O)cc2c1Cl [Example 183, (S)-4-(5-(3-((2-((S)-3-carboxybutanoyl)-4-chloro-6-hydroxybenzo[b]thiophen-5-yl)oxy)propoxy)-6-methoxybenzo[b]thiophen-2-yl)-2-methyl-4-oxobutanoic acid]	–	127%

Reference: US10793557B2, “Sting agonist compounds” (Merck Sharp & Dohme Corp., priority 2018, dated 2020)
